Assay results taken from ChEMBL document CHEMBL4483862, “Open-source discovery of chemical leads for next-generation chemoprotective antimalarials” (2018).
pIC50: −log10 of the molar value.

Test system: Plasmodium berghei
Assay: Luciferase/luciferin-expressing antifolate-resistant parasites were used to infect a culture of HepG2 cells that were pre-incubated with compounds. Infected hepatocytes emit light due to the luciferase reaction. Assay results are presented as the percent inhibition of light emission compared to control. […]
Format: functional
Details: sporozoite; for IC90: read-out: LUCIFERASE INFECTION ASSAY - IC90
[1] = read-out: LUCIFERASE INFECTION ASSAY - IC50

Row | SMILES | IC90 | pIC50 [1] | other results
1 | C=CCN(c1ccc(F)cc1)S(=O)(=O)c1cc(C(=O)OCC(=O)C23CC4CC(CC(C4)C2)C3)ccc1Cl | > 10 µM |  | pIC50 (FFLUC_HILL_SLOPE 7.93, FFLUC_R_SQUARED 0.0643, HEPG2TOX_HILL_SLOPE 7, HEPG2TOX_R_SQUARED 0.225, PBLUC_HILL_SLOPE 4.62, PBLUC_R_SQUARED 0.186, read-out: LUCIFERASE INFECTION ASSAY - IC50): 5.16
2 | Cc1ccc(-n2c(C)cc(C(=O)COC(=O)c3cccnc3O)c2C)cc1C | 6.62 µM |  | pIC50 (PBLUC_HILL_SLOPE 1.34, PBLUC_R_SQUARED 0.562, read-out: LUCIFERASE INFECTION ASSAY - IC50): 5.89
3 | O=C(N/N=C/c1c(-c2ccccc2)n(-c2ccccc2)c2ccccc12)C1COc2ccccc2O1 (stereo not given) | > 10 µM |  | pIC50 (FFLUC_HILL_SLOPE 2.45, FFLUC_R_SQUARED 0.636, PBLUC_HILL_SLOPE 2.61, PBLUC_R_SQUARED 0.591, read-out: LUCIFERASE INFECTION ASSAY - IC50): 5.23
4 | CC(C)(C)c1ccc(C(=O)Nc2ccc(Oc3ccc(Cl)cc3)cc2)cc1 | > 8.69 µM | < 5.06 | 
5 | COCCNC(=S)Nc1ccccc1CC(c1c[nH]c2ccccc12)c1c[nH]c2ccccc12 | > 10 µM |  | pIC50 (PBLUC_HILL_SLOPE 10.3, PBLUC_R_SQUARED 0.121, read-out: LUCIFERASE INFECTION ASSAY - IC50): 5.03
6 | COc1cc(C(=O)Nc2ccc(-c3csc(N4CCOCC4)n3)cc2)cc(Cl)c1OC | > 10 µM |  | pIC50 (HEPG2TOX_HILL_SLOPE 2.64, HEPG2TOX_R_SQUARED 0.944, PBLUC_HILL_SLOPE 1.81, PBLUC_R_SQUARED 0.542, read-out: LUCIFERASE INFECTION ASSAY - IC50): 5.40
7 | Clc1ccccc1/C=C/c1nc(-c2ccccn2)no1 | > 11.6 µM |  | pIC50 (FFLUC_HILL_SLOPE 3.15, FFLUC_R_SQUARED 0.695, PBLUC_HILL_SLOPE 0.408, PBLUC_R_SQUARED 0.784, read-out: LUCIFERASE INFECTION ASSAY - IC50): 6.35
8 | CC(C)(C)c1ccc(-c2nc(-c3ccc(C(F)(F)F)cc3)cs2)cc1 | > 9.13 µM |  | pIC50 (FFLUC_HILL_SLOPE 12.9, FFLUC_R_SQUARED 0.362, PBLUC_HILL_SLOPE 0.825, PBLUC_R_SQUARED 0.291, read-out: LUCIFERASE INFECTION ASSAY - IC50): 5.49
9 | COc1ccc(C(=O)Nc2nc3ccc(C)cn3c2C(=O)NC2CCCC2)cc1 | 8.02 µM |  | pIC50 (FFLUC_HILL_SLOPE 1.65, FFLUC_R_SQUARED 0.455, HEPG2TOX_HILL_SLOPE 5.25, HEPG2TOX_R_SQUARED 0.908, PBLUC_HILL_SLOPE 10.6, PBLUC_R_SQUARED 0.223, read-out: LUCIFERASE INFECTION ASSAY - IC50): 5.19
10 | Cn1c2ccccc2c(=O)c2c(=O)n(CCc3ccccc3)c(-c3ccco3)nc21 | 5.38 µM | 5.58 | 
11 | CCCC/N=C1\SCC(c2c[nH]c3ccccc23)=NN1C | > 10 µM |  | pIC50 (HEPG2TOX_HILL_SLOPE 0.211, HEPG2TOX_R_SQUARED 0.832, read-out: LUCIFERASE INFECTION ASSAY - IC50): < 5.00
12 | COc1ccc(/C=C/c2nc3cc(-c4nc5ccccc5[nH]4)ccc3s2)cc1 | 4.48 µM | 5.74 | 
13 | O=C(Nc1cc(Cl)cc(Cl)c1)N1CCC(n2cccc2)CC1 | > 9.76 µM | < 5.01 | 
14 | Cc1cc(C)c(NC(=O)NCCCOCC(C)C)c(Cl)c1 | > 10 µM | < 5.00 | 
15 | COc1cc(C2CC(=O)c3cn[nH]c3C2)cc(OC)c1OC (stereo not given) | > 10.9 µM |  | pIC50 (HEPG2TOX_HILL_SLOPE 1.57, HEPG2TOX_R_SQUARED 0.775, PBLUC_HILL_SLOPE 1.9, PBLUC_R_SQUARED 0.199, read-out: LUCIFERASE INFECTION ASSAY - IC50): 5.23
16 | Cn1c(C(=O)N2CCN(C(c3ccccc3)c3ccccc3)CC2)cc2c(=O)n3ccccc3nc21 | > 10 µM | < 5.00 | 
17 | CN(C)S(=O)(=O)c1ccc(SCC(=O)c2ccc(C(C)(C)C)cc2)nc1 | 5.05 µM |  | pIC50 (PBLUC_HILL_SLOPE 8.24, PBLUC_R_SQUARED 0.558, read-out: LUCIFERASE INFECTION ASSAY - IC50): 5.41
18 | CCn1nc(C)cc1-c1nnc(Cc2ncc([N+](=O)[O-])s2)n1CCCOC | 5.21 µM |  | pIC50 (HEPG2TOX_HILL_SLOPE 9.43, HEPG2TOX_R_SQUARED 0.891, PBLUC_HILL_SLOPE 6.15, PBLUC_R_SQUARED 0.786, read-out: LUCIFERASE INFECTION ASSAY - IC50): 5.44
19 | O=C(Nc1cccc2c[nH]nc12)c1cn(-c2ccccc2Br)nn1 | > 10 µM | < 5.00 | 
20 | NC(=O)C1CCN(c2cc(-c3nc4ccccc4s3)c3ccccc3n2)CC1 | > 10 µM |  | pIC50 (PBLUC_HILL_SLOPE 7.92, PBLUC_R_SQUARED 0.452, read-out: LUCIFERASE INFECTION ASSAY - IC50): 5.08
21 | CCCCC1(Cc2ccccc2)C(=O)c2cccc3c4ccccc4n(c23)C1=O (stereo not given) | > 8.65 µM |  | pIC50 (PBLUC_HILL_SLOPE 2.19, PBLUC_R_SQUARED 0.0283, read-out: LUCIFERASE INFECTION ASSAY - IC50): 5.10
22 | Cn1c(NCCOc2cccc3c2OC(C)(C)C3)c(C#N)c(=O)n(C)c1=O | > 10 µM | < 5.00 | 
23 | O=C(Nc1ccc(OC(F)(F)F)cc1)Sc1ccc(Cl)s1 | > 9.33 µM |  | pIC50 (FFLUC_HILL_SLOPE 30.4, FFLUC_R_SQUARED 0.438, HEPG2TOX_HILL_SLOPE 8.9, HEPG2TOX_R_SQUARED 0.733, PBLUC_HILL_SLOPE 2, PBLUC_R_SQUARED 0.693, read-out: LUCIFERASE INFECTION ASSAY - IC50): 5.44

Row | SMILES | IC90 | pIC50 [1] | other results
24 | COc1cc2nc(-c3ccccc3)nc(N3CCN(c4ccncc4)CC3)c2cc1OC | > 10 µM | < 5.00 | 
25 | CCOc1ccc(-n2c(SCC(=O)c3c(N)n(C)c(=O)n(C)c3=O)nnc2-c2ccccc2Cl)cc1 | 3.67 µM | 5.48 | 
26 | Cc1cc(C(=O)CSc2nnc(Cn3cnc4ccccc43)n2-c2ccccc2Cl)c(C)n1C | > 10 µM | < 5.00 | 
27 | COC(=O)c1c(NC(=O)c2cccnc2)c2cc(NCC(C)C)cnc2n1CC(C)C | > 7.79 µM | < 5.11 | 
28 | O=C(CN1CC=C(c2ccccc2)CC1)Nc1ccnn1C1CCCC1 | > 10 µM |  | pIC50 (HEPG2TOX_HILL_SLOPE 1.62, HEPG2TOX_R_SQUARED 0.847, PBLUC_HILL_SLOPE 1.87, PBLUC_R_SQUARED 0.673, read-out: LUCIFERASE INFECTION ASSAY - IC50): 5.22
29 | Cc1cc(Br)c(O)c(/C=N/NC(=S)NC(C)(C)C)c1 | 4.85 µM |  | pIC50 (HEPG2TOX_HILL_SLOPE 12.3, HEPG2TOX_R_SQUARED 0.401, PBLUC_HILL_SLOPE 113, PBLUC_R_SQUARED 0.332, read-out: LUCIFERASE INFECTION ASSAY - IC50): 5.32
30 | CCCCCCc1nc(SCC(=O)Nc2cc(C)on2)c2c(=O)n(C)c(=O)n(CCC)c2n1 | > 10 µM | < 5.00 | 
31 | CC(OC(=O)c1cccc(NC(=O)c2cccs2)c1)C(=O)C12CC3CC(CC(C3)C1)C2 (stereo not given) | 3.57 µM |  | pIC50 (PBLUC_HILL_SLOPE 20.8, PBLUC_R_SQUARED 0.61, read-out: LUCIFERASE INFECTION ASSAY - IC50): 5.49
32 | Cc1ccc2c(c1)C1CN(C)CCC1N2C(=O)CCCOc1ccc(Cl)cc1Cl (stereo not given) | > 10 µM | < 5.00 | 
33 | CCn1c2ccccc2c2cc(NC(=O)COC(=O)Cc3cccs3)ccc21 | > 10 µM |  | pIC50 (PBLUC_HILL_SLOPE 11.3, PBLUC_R_SQUARED 0.588, read-out: LUCIFERASE INFECTION ASSAY - IC50): 5.03
34 | NC(=NC(=S)Nc1cc(Cl)ccc1Cl)c1ccccc1 | > 10.2 µM |  | pIC50 (HEPG2TOX_HILL_SLOPE 6.22, HEPG2TOX_R_SQUARED 0.375, read-out: LUCIFERASE INFECTION ASSAY - IC50): < 4.99
35 | Cn1c2ccccc2c2ccc(CC(=O)N/N=C/c3ccccc3)cc21 | > 10 µM | < 5.00 | 
36 | Cc1cc2ncc(-c3ccnc(SCc4cccc(Cl)c4)n3)c(C)n2n1 | 8.63 µM |  | pIC50 (PBLUC_HILL_SLOPE 3.9, PBLUC_R_SQUARED 0.625, read-out: LUCIFERASE INFECTION ASSAY - IC50): 5.31
37 | O=C(COC(=O)c1cc(-c2ccc(Cl)cc2)nc2ccccc12)Nc1cc(C(F)(F)F)ccc1-n1cncn1 | > 10 µM | < 5.00 | 
38 | O=C(Nc1ccc(Cl)cc1)n1ncc(Sc2ccc(Cl)cc2)c1-c1ccc(Cl)cc1 | > 6.95 µM | < 5.16 | 
39 | CCOC(=O)c1sc2sc(C(C)=O)c(C)c2c1C | > 11.7 µM | < 4.93 | 
40 | Cc1cccc(-c2nnc(Sc3nc(C)nc4sc5c(c34)CCCC5)n2CC(N)=O)c1 | 1.1 µM |  | pIC50 (HEPG2TOX_HILL_SLOPE 8.24, HEPG2TOX_R_SQUARED 0.61, PBLUC_HILL_SLOPE 14.6, PBLUC_R_SQUARED 0.735, read-out: LUCIFERASE INFECTION ASSAY - IC50): 6.03
41 | COC(=O)c1scc(S(=O)(=O)Cc2ccco2)c1N/N=C(\C#N)S(=O)(=O)C(C)C | > 7.18 µM | < 5.14 | 
42 | OC1CCN(c2ccnc3c(-c4ccc(Oc5ccccc5)cc4)cnn23)CC1 | 7.21 µM |  | pIC50 (HEPG2TOX_HILL_SLOPE 2.26, HEPG2TOX_R_SQUARED 0.638, PBLUC_HILL_SLOPE 2.48, PBLUC_R_SQUARED 0.699, read-out: LUCIFERASE INFECTION ASSAY - IC50): 5.53
43 | COc1ccc(C)cc1NC(=O)CN(Cc1ccc2c(c1)OCO2)C1CCCC1 | > 10 µM | < 5.00 | 
44 | Cc1cc(C(C)(C)C)cc(S(=O)(=O)Nc2ccc(C(=O)OC(C)C(=O)c3cc(C)n(-c4ccccc4)c3C)cc2)c1C (stereo not given) | > 10 µM |  | pIC50 (FFLUC_HILL_SLOPE 4.56, FFLUC_R_SQUARED 0.633, PBLUC_HILL_SLOPE 9.36, PBLUC_R_SQUARED 0.441, read-out: LUCIFERASE INFECTION ASSAY - IC50): 5.05
45 | CC(Sc1nnc(-c2ccccc2)c(-c2ccccc2)n1)C(=O)N1CCCC1 (stereo not given) | 1.49 µM |  | pIC50 (HEPG2TOX_HILL_SLOPE 2.07, HEPG2TOX_R_SQUARED 0.202, PBLUC_HILL_SLOPE 16.4, PBLUC_R_SQUARED 0.575, read-out: LUCIFERASE INFECTION ASSAY - IC50): 5.89
